One may read the IC50 as the concentration that inhibits the measured activity by half.

In this assay the target is T1, calcium channel (3H-nitrendipine binding, heart membranes) (Oryctolagus cuniculus, UniProt P15381).
T1 construct: from tissue; host or cells: rabbit heart membrane preparation
T1 sequence (P15381 whole entry, other chains not shown): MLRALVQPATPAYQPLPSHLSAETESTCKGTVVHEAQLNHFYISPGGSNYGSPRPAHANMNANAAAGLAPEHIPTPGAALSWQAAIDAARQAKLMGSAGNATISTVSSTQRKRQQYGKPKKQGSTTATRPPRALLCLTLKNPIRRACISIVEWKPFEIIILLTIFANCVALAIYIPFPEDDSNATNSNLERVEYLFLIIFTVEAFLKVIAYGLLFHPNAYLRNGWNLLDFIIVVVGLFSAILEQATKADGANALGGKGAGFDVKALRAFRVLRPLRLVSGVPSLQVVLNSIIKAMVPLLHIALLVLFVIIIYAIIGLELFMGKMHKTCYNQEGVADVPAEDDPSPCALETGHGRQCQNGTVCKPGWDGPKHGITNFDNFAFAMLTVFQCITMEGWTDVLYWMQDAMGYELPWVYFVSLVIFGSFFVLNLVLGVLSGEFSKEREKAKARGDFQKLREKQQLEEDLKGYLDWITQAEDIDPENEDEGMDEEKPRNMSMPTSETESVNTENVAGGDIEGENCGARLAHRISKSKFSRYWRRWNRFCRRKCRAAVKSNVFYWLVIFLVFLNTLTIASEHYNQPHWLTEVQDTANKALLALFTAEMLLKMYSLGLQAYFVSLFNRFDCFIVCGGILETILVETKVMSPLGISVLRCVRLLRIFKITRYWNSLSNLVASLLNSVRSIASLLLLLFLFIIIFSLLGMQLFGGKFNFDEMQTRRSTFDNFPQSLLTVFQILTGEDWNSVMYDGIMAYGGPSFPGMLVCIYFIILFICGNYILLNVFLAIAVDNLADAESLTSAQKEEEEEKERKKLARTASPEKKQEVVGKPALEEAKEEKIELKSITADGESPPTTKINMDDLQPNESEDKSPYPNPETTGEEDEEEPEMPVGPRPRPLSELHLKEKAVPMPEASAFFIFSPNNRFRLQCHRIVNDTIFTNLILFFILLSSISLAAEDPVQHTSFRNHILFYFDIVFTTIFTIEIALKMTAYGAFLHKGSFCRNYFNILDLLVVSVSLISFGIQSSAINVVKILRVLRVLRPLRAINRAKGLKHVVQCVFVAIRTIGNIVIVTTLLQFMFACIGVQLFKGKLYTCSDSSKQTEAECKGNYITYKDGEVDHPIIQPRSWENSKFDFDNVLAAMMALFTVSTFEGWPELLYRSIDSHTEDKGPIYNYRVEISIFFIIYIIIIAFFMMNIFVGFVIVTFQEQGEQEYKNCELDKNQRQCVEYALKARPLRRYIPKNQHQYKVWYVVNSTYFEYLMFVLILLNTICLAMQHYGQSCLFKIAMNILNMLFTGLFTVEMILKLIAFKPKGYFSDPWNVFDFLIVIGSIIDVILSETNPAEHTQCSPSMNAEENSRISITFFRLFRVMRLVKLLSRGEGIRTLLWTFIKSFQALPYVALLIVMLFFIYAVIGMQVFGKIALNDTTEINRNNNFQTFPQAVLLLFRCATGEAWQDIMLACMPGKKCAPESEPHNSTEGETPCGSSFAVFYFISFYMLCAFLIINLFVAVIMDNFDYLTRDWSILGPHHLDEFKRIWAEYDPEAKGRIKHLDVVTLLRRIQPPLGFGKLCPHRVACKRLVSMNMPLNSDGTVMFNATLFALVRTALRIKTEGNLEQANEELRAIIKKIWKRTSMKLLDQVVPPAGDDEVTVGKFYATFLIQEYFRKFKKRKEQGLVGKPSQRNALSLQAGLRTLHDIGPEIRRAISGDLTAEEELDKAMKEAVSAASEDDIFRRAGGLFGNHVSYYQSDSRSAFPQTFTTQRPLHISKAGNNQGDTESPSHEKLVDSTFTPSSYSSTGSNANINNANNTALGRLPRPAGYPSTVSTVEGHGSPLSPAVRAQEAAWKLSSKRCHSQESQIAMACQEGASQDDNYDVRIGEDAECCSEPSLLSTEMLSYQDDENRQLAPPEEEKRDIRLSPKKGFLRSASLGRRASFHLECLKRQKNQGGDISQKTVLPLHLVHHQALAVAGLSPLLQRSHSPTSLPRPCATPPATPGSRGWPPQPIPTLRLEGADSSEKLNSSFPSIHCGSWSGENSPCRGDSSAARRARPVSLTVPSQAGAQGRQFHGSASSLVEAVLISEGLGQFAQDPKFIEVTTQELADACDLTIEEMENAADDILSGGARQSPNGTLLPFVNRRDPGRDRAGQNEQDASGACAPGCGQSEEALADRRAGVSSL
T1 sequence (P13806 27-960 partner limits assumed, other chains not shown): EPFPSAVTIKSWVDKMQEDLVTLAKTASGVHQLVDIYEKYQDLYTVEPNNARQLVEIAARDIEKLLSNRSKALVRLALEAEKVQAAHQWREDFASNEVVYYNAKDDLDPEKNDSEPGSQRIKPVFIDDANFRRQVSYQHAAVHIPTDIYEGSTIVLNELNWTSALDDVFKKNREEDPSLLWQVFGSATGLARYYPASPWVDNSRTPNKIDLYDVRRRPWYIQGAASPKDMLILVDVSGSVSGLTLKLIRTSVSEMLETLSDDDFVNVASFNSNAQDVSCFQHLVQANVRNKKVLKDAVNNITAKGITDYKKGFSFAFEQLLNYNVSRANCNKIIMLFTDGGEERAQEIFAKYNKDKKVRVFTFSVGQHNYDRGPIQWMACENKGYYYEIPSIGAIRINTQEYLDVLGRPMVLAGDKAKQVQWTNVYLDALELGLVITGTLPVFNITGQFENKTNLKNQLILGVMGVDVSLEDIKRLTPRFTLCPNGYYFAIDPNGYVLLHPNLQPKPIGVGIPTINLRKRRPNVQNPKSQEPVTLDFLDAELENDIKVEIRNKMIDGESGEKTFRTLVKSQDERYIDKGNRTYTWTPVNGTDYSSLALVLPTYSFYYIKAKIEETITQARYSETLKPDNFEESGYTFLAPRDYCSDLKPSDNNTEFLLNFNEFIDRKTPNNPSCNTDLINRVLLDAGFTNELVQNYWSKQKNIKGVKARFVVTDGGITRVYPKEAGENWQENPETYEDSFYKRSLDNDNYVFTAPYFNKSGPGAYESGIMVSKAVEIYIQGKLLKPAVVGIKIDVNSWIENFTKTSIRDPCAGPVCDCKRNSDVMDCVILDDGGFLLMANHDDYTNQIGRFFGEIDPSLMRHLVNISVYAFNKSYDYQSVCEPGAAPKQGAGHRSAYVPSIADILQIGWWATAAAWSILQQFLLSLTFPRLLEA
T1 sequence (P13806 961-1106 partner limits assumed, other chains not shown): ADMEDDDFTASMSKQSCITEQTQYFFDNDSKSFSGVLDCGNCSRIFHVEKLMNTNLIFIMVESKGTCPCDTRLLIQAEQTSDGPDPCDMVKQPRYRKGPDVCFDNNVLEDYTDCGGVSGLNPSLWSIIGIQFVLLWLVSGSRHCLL
Nature of the assay: Assay for inhibition of nitrendipine binding (calcium channel antagonist activity). Conditions: 3H-nitrendipine 0.05-0.50 nM, rabbit heart membranes, 90 minutes at 4° C. On the procedure:
Female, New Zealand white rabbits (1-2 kg) are sacrificed by cervical dislocation, and the heart is immediately removed, cleaned and chopped into small pieces. The tissue is homogenized in 5×times volume of 0.05M Hepes buffer, pH 7.4. The homogenate is centrifuged at 4000 g for 10 minutes, and the supernatant is re-centrifuged at 42,000×g for 90 minutes. The resulting membrane pellet is re-suspended (0.7 ml/g weight) in 0.05M Hepes, pH 7.4 and stored at […] until used. Each tube of the binding assay contains ^3H-nitrendipine (0.05-0.50 nM), buffer, membranes (0.10 ml), and test compound in a total volume of 1.0 ml. After 90 minutes at 4° C., the bound nitrendipine is separated from the unbound by filtration on Whatman GF/C filters. After rinsing, the filters are dried and counted in a liquid scintillation counter.
Non-specific binding of ^3H-nitrendipine (that amount bound in the presence of excess unlabelled nitrendipine) is subtracted from the total bound to obtain specifically bound radiolabeled nitrendipine. The amount of specifically bound nitrendipine in the presence of a test compound is compared to that amount bound in the absence of a compound. A percent displacement (or inhibition) can then be calculated.
Turning to `CCOC(=O)C1=C(c2ccccc2)NC2=C(C1c1c(O)cccc1Cl)S(=O)(=O)CCCC2` (stereo not drawn) [Compound 7, Thiepino[3,2-b]pyridine-3-carboxylic acid, 4-(2-chloro-6-hydroxyphenyl)-1,4,6,7,8,9-hexahydro-2-phenyl-, ethyl ester, 5,5-dioxide], the IC50 worked out at 2000 nM.

For `CN(CCOC(=O)C1=C(c2ccccc2)NC2=C(C1c1cccc(Cl)c1)S(=O)(=O)CCCC2)Cc1cccs1` (stereo not drawn) [Compound 19, Thiepino[3,2-b]pyridine-3-carboxylic acid, 4-(3-chlorophenyl)-1,4,6,7,8,9-hexahydro-2-phenyl-, 2-[methyl(2-thienylmethyl)amino]ethyl ester, 5,5-dioxide], the IC50 worked out at 1290 nM.

Take `CCOC(=O)C1=C(c2ccccc2)NC2=C(C1c1ccccc1Cl)S(=O)(=O)CCCC2` (stereo not drawn) [Compound 8, Thiepino[3,2-b]pyridine-3-carboxylic acid, 4-(2-chlorophenyl)-1,4,6,7,8,9-hexahydro-2-phenyl-, ethyl ester, 5,5-dioxide]: the 50% inhibitory concentration (IC50) worked out at 580 nM.

As for `CCOC(=O)C1=C(c2ccccc2)NC2=C(C1c1cccc(Cl)c1Cl)S(=O)(=O)CCCC2` (stereo not drawn) [Compound 2, Thiepino[3,2-b]pyridine-3-carboxylic acid, 4-(2,3-dichlorophenyl)-1,4,6,7,8,9-hexahydro-2-phenyl-, ethyl ester, 5,5-dioxide], the IC50 stood at 115 nM.

Regarding `CCOC(=O)C1=C(c2ccccc2)NC2=C(C1c1cccc([N+](=O)[O-])c1)S(=O)(=O)CCCC2` (stereo not drawn) [Compound 11, Thiepino[3,2-b]pyridine-3-carboxylic acid, 1,4,6,7,8,9-hexahydro-4-(3-nitrophenyl)-2-phenyl-, ethyl ester, 5,5-dioxide], the IC50 stood at 6950 nM.

Regarding `CCOC(=O)C1=C(c2cccnc2)NC2=C(C1c1cccc(C(F)(F)F)c1F)S(=O)(=O)CCCC2` (stereo not drawn) [Compound 23, Thiepino[3,2-b]pyridine-3-carboxylic acid, 4-[2-fluoro-3-(trifluoromethyl)phenyl]-1,4,6,7,8,9-hexahydro-2-(3-pyridinyl)-, ethyl ester, 5,5-dioxide], the IC50 was found to be 2000 nM.

(Values after patent publication US6420383B1, “Thiepino[3,2-b]dihydropyridines and related compositions and methods” (Ortho-McNeil Pharmaceutical, Inc., priority 2000, dated 2002).)
